# Measurements: patent publication US10442804B2, “Compounds for the treatment of hepatitis B virus infection” (Gilead Sciences, Inc., priority 2017, dated 2019)
# Read-outs that look alike come from different tables or passages of the source.
# How the values were obtained:
# [1] = test system: HBV-infected NTCP-HepG2 cells, secreted HBsAg; assay: microbe, parasite or virus in culture; type: cell-based, hepatitis B virus (genotype D, AD38-derived); details: Hepatitis B virus, 120 h, secreted HBsAg in supernatant after 5 days; geometric mean of minimum four determinations; read-out: NTCP HBsAg EC50
# Method in brief: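 NTCP-HepG2 cells were infected with genotype D HBV at 4000 genome equivalents/cell, then seeded 4 days post-infection with serially diluted compounds (1% DMSO) for 5 days. Supernatant HBsAg was measured by chemiluminescent MSD immunoassay. EC50 from four-parameter fit, geometric mean of ≥4 determinations.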
# MT-4 cytotoxicity assay = type: cell-based, human; details: human
# [2] = five days, Cell Titer Glo luminescence, read-out: MT-4 CC50
Compound,EC50 [1],CC50 at 5 days (MT-4 cytotoxicity assay; [2]),CC50 at 5 days (MT-4 cytotoxicity assay; MT-4 CC50)
"COc1cc2c(cc1OCCC(C)(C)OC)[C@H]1CCC(C)(C)N1n1cc(C(=O)O)c(=O)cc1-2 [Example 64, (R)-11-methoxy-12-(3-methoxy-3-methylbutoxy)-3,3-dimethyl-8-oxo-2,3,8,13b-tetrahydro-1H-pyrido[2,1-a]pyrrolo[1,2-c]phthalazine-7-carboxylic acid]",0.84 nM,> 10000 nM,–
"COCc1cc2c(cc1OCC13CC(C#N)(C1)C3)[C@H]1CCC(C)(C)N1n1cc(C(=O)O)c(=O)cc1-2 [Example 74, (R)-12-((3-cyanobicyclo[1.1.1]pentan-1-yl)methoxy)-11-(methoxymethyl)-3,3-dimethyl-8-oxo-2,3,8,13b-tetrahydro-1H-pyrido[2,1-a]pyrrolo[1,2-c]phthalazine-7-carboxylic acid]",3.8 nM,> 10000 nM,–
"CC1(C)CC[C@@H]2c3cc(OCC45CC(C#N)(C4)C5)c(OC(F)(F)F)cc3-c3cc(=O)c(C(=O)O)cn3N21 [Example 92, (R)-12-((3-cyanobicyclo[1.1.1]pentan-1-yl)methoxy)-3,3-dimethyl-8-oxo-11-(trifluoromethoxy)-2,3,8,13b-tetrahydro-1H-pyrido[2,1-a]pyrrolo[1,2-c]phthalazine-7-carboxylic acid]",3 nM,8100 nM,–
"COCCCOc1cc2c(cc1OCC(F)F)-c1cc(=O)c(C(=O)O)cn1N1[C@@H]2CCC1(C)C [Example 27, (R)-11-(2,2-difluoroethoxy)-12-(3-methoxypropoxy)-3,3-dimethyl-8-oxo-2,3,8,13b-tetrahydro-1H-pyrido[2,1-a]pyrrolo[1,2-c]phthalazine-7-carboxylic acid]",3.7 nM,> 10000 nM,–
"COc1cc2c(cc1C#CC(C)(C)S(=O)(=O)C1CC1)[C@H]1CCC(C)(C)N1n1cc(C(=O)O)c(=O)cc1-2 [Example 84, (R)-12-(3-(cyclopropylsulfonyl)-3-methylbut-1-yn-1-yl)-11-methoxy-3,3-dimethyl-8-oxo-2,3,8,13b-tetrahydro-1H-pyrido[2,1-a]pyrrolo[1,2-c]phthalazine-7-carboxylic acid]",11.2 nM,> 10000 nM,–
"COCCCOc1cc2c(cc1Cl)-c1cc(=O)c(C(=O)O)cn1N1C2CCC12CC2 (stereo not shown) [Example 59, 11′-chloro-12′-(3-methoxypropoxy)-8′-oxo-1′,2′,8′,13b′-tetrahydrospiro[cyclopropane-1,3′-pyrido[2,1-a]pyrrolo[1,2-c]phthalazine]-7′-carboxylic acid]",6 nM,–,> 10000 nM
"COCCCOc1cc2c(cc1Cl)-c1cc(=O)c(C(=O)O)cn1N1[C@@H](C)CC[C@@H]21 (single isomer, unassigned) [Example 8]",200 nM,> 10000 nM,–
"COc1cc2c(cc1-c1cnn(C(F)F)c1)[C@H]1CCC(C)(C)N1n1cc(C(=O)O)c(=O)cc1-2 [Example 44, (R)-12-(1-(Difluoromethyl)-1H-pyrazol-4-yl)-11-methoxy-3,3-dimethyl-8-oxo-2,3,8,13b-tetrahydro-1H-pyrido[2,1-a]pyrrolo[1,2-c]phthalazine-7-carboxylic acid]",5.5 nM,3000 nM,–
"COCCCOc1cc2c(cc1OC)-c1cc(=O)c(C(=O)O)cn1N1[C@H]2CCCC1(C)C (single isomer, unassigned) [Example 53]",9.1 nM,9700 nM,–
"CC1(C)CC[C@@H]2c3cc(OCC45CC(C#N)(C4)C5)c(OC(F)F)cc3-c3cc(=O)c(C(=O)O)cn3N21 [Example 104, (R)-12-((3-cyanobicyclo[1.1.1]pentan-1-yl)methoxy)-11-(difluoromethoxy)-3,3-dimethyl-8-oxo-2,3,8,13b-tetrahydro-1H-pyrido[2,1-a]pyrrolo[1,2-c]phthalazine-7-carboxylic acid]",2.7 nM,> 10000 nM,–
"COCCCOc1cc2c(cc1Cl)-c1cc(=O)c(C(=O)O)cn1N1[C@@H]2CC[C@@H]1C (single isomer, unassigned) [Example 10]",5.7 nM,> 10000 nM,–
